Where two headings read alike, the source gives them in different places.
Assays:
AMPA receptors = assay: Inhibition of AMPA induced spreading depression in isolated chicken retina; type: cell-based; details: AMPA (5 μM)
In short: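 Isolated chicken retina; spreading depression evoked by 5 μM AMPA. Antagonism read as prolongation of the latency to spreading-depression onset.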

AMPA/kainate receptors = assay: Inhibition of AMPA induced whole-cell current in acutely isolated cerebellar Purkinje cells (patch clamp); type: cell-based; details: 5 μM AMPA, read-out: Inhibition of the ion-currents caused by 5 μM AMPA, IC50
In short: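 Whole-cell patch-clamp on acutely isolated cerebellar Purkinje cells; current evoked by 5 μM AMPA, with compound activity measured as inhibition of this AMPA-induced current.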

CD1 mice [1] = assay: Anticonvulsant activity, pentetrazole induced seizures; type: in vivo; details: Mus musculus; po.; read-out: Pentetrazol ED50
In short: (§1)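 Male CD1 mice (10 per dose) received test compounds orally at three dose levels, usually 60 min before chemical induction of clonic-tonic seizures and lethality.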

Lewis rats [2] = assay: Autoimmune encephalomyelitis model, neurological (clinical) symptoms; type: in vivo; details: for Neurological symptoms (change, %): day 24 after immunization; for change in vivo at 1.875 mg/kg / change in vivo at 3.75 mg/kg / change in vivo at 7.5 mg/kg / change in vivo at 15 mg/kg: Rattus norvegicus, ip, read-out: Neurological symptoms (change compared to controls, %)
Lewis rats [3] = assay: Autoimmune encephalomyelitis model, histological symptoms; type: in vivo; details: day 24 after immunization
Protocol: 5-15 animals were used in each group. Their weights were 160-180 g (Lewis rats, female) and 180-220 g (Lewis rats, male). The activity of the compounds was determined according to the symptom score values, and compared to those of the control group (see Table 6). Histopathological investigations were carried out on the brain stem, the spinal cord, and the sciatic nerve (Gijbels et al., J. Clin. Invest. 94:2177 (1994)) using 5-10 animal/group.
Compounds of the invention were further investigated in the autoimmune encephalomyelitis model in rats as outlined in this description before, with the variance that 10 animals were used in each group, of weights 140-160 g (Lewis rats, female).

CD1 mice [4] = assay: Anticonvulsant activity, 4-aminopyridine induced seizures; type: in vivo; details: Mus musculus; po.; read-out: 4-AP ED50
In short: as §1

CD1 mice [5] = assay: Anticonvulsant activity, maximal electroshock seizure (MES) test; type: in vivo; details: Mus musculus, po.
CD1 mice [6] = assay: Muscle relaxant activity, rotarod test; type: in vivo; details: Mus musculus, ip
CD1 mice [7] = assay: Anti-tremor effect, GYKI 20039 induced tremor; type: in vivo; details: Mus musculus; po., Litchfield-Wilcoxon, limits in brackets; read-out: ED50, tremor induced by GYKI 20039 10 mg/kg ip.
BN rats = assay: Airway eosinophilia of ovalbumin sensitized, antigen challenged BN rats (BALF eosinophil count); type: in vivo; details: 3.0 mg/kg po, 2 hours pre-challenge, mean ± SE
From the text: Bronchial hyperresponsiveness (BHR) and airway eosinophilia (AEP) are characteristic features of bronchial asthma. BHR is typified by an exaggerated response to a wide variety of stimuli that can induce an increased resistance to airflow in the airways. AEP is a result of prolonged eosinophil infiltration, mast cell, and T cell activation in the airways. In actively (e.g., ovalbumin) immunized rats (e.g., Brown Norway [BN] strain), repeated sensitization followed by antigenic challenge results in lung eosinophilia and bronchial hyperresponsiveness to different spasmogens (e.g., acetylcholine). This is the most frequently employed model for studying potential anti-asthmatic effects of new chemical entities.
BN rats were actively immunized with allergen (ovalbumin). On day one, rats were sensitized with the subcutaneous administration of ovalbumin suspended in Al(OH)3 (2.5 μg ovalbumin +20 mg Al(OH)3 in 0.5 ml saline). Booster injections (same dose and same route) were given at day 14 and 21. Simultaneously at each occasion 0.25 ml of Bordatella pentussis vaccine was injected intraperitoneally. On day 28, animals were challenged by inhalation of the antigen (vaporized 1% OVA solution for 1 hour). Test compounds were administered orally 2 hours pre-challenge.
48 hours following challenge, they were sacrificed by an overdose of urethane (4-5 ml of 15% urethane given i.p.), bronchoalveolar lavage fluid (BALF) was obtained, and tracheae dissected from the animals. Eosinophil cell count (cells/ml BALF) was determined manually using a selective stain for eosinophils and counting the cells in a Buerker chamber. BHR was determined using tracheal rings suspended in an organ bath. After an equilibration period of 30 minutes, cumulative concentration response curves to acetylcholine were determined. Maximal response of control (unchallenged, non-treated) tracheal rings is obtained at 10^−3 M acetylcholine. The height of this response is defined as 100%. All other contractions are expressed as a percentage and related to the control response.

Structure (SMILES): Cc1nnc(N2N=C(c3ccc(N)cc3)c3cc4c(cc3C[C@H]2C)OCO4)s1 [Example 86, (R)-5-(4-Aminophenyl)-8-methyl-7-(5-methyl-1,3,4-thiadiazol-2-yl)-8,9-dihydro-7H-1,3-dioxolo-[4,5-h][2,3]benzodiazepine]
- IC50 (AMPA receptors): 420 nM
- IC50 (AMPA/kainate receptors): 60 nM
- ED50 (CD1 mice [1]): 10 mg/kg
- Neurological symptoms (change, %) (Lewis rats [2]; 1.875 mg/kg ip., female rats): −42%
- Neurological symptoms (change, %) (Lewis rats [2]; 1.875 mg/kg ip., male rats): +54%
- Neurological symptoms (change, %) (Lewis rats [2]; 3.75 mg/kg ip., female rats): −21%
- Neurological symptoms (change, %) (Lewis rats [2]; 3.75 mg/kg ip., male rats): −72%
- Neurological symptoms (change, %) (Lewis rats [2]; 7.5 mg/kg ip., female rats): −62%
- Neurological symptoms (change, %) (Lewis rats [2]; 7.5 mg/kg ip., male rats): −66%
- Neurological symptoms (change, %) (Lewis rats [2]; 15 mg/kg ip., female rats): −85%
- Neurological symptoms (change, %) (Lewis rats [2]; 15 mg/kg ip., male rats): −67%
- change in vivo at 1.875 mg/kg (Lewis rats [2]; 1.875 mg/kg ip., female rats, 0-8 day): -40%
- change in vivo at 1.875 mg/kg (Lewis rats [2]; 1.875 mg/kg ip., female rats, 0-14 day): -39%
- change in vivo at 1.875 mg/kg (Lewis rats [2]; 1.875 mg/kg ip., male rats, 0-8 day): 5%
- change in vivo at 1.875 mg/kg (Lewis rats [2]; 1.875 mg/kg ip., male rats, 0-14 day): -8%
- change in vivo at 3.75 mg/kg (Lewis rats [2]; 3.75 mg/kg ip., female rats, 0-8 day): -3%
- change in vivo at 3.75 mg/kg (Lewis rats [2]; 3.75 mg/kg ip., female rats, 0-14 day): -18%
- change in vivo at 3.75 mg/kg (Lewis rats [2]; 3.75 mg/kg ip., male rats, 0-8 day): -70%
- change in vivo at 3.75 mg/kg (Lewis rats [2]; 3.75 mg/kg ip., male rats, 0-14 day): -77%
- change in vivo at 7.5 mg/kg (Lewis rats [2]; 7.5 mg/kg ip., female rats, 0-8 day): -62%
- change in vivo at 7.5 mg/kg (Lewis rats [2]; 7.5 mg/kg ip., female rats, 0-14 day): -66%
- change in vivo at 7.5 mg/kg (Lewis rats [2]; 7.5 mg/kg ip., male rats, 0-8 day): -65%
- change in vivo at 7.5 mg/kg (Lewis rats [2]; 7.5 mg/kg ip., male rats, 0-14 day): -70%
- change in vivo at 15 mg/kg (Lewis rats [2]; 15 mg/kg ip., female rats, 0-8 day): -97%
- change in vivo at 15 mg/kg (Lewis rats [2]; 15 mg/kg ip., female rats, 0-14 day): -85%
- change in vivo at 15 mg/kg (Lewis rats [2]; 15 mg/kg ip., male rats, 0-8 day): -93%
- change in vivo at 15 mg/kg (Lewis rats [2]; 15 mg/kg ip., male rats, 0-14 day): -67%
- Activity compared to the reference compound (histopathological and pharmacological investigations) (Lewis rats [2]; result in words): more active than the reference compound GYKI 53773
- Histological (histopathological) symptoms (change, %) (Lewis rats [3]; 1.875 mg/kg ip., female rats): −15%
- Histological symptoms (change, %) (Lewis rats [3]; 1.875 mg/kg ip., male rats): −25%
- Histological (histopathological) symptoms (change, %) (Lewis rats [3]; 3.75 mg/kg ip., female rats): −20%
- Histological symptoms (change, %) (Lewis rats [3]; 3.75 mg/kg ip., male rats): +4%
- Histological symptoms (change, %) (Lewis rats [3]; 7.5 mg/kg ip., female rats): −22%
- Histological symptoms (change, %) (Lewis rats [3]; 7.5 mg/kg ip., male rats): +1%
- Histological symptoms (change, %) (Lewis rats [3]; 15 mg/kg ip., female rats): −53%
- Histological symptoms (change, %) (Lewis rats [3]; 15 mg/kg ip., male rats): −66%
- ED50 (CD1 mice [4]): 10.1 mg/kg
- ED50 (CD1 mice [5]; 0.5 h, 30′, read-out: MES 30′ ED50): 4.3 mg/kg
- ED50 (CD1 mice [5]; 1 h, 60 min before induction, read-out: MES (MES 60′) ED50): 6.1 mg/kg
- ED50 (CD1 mice [6]): 0.8 mg/kg
- ED50 (CD1 mice [7]): 6.8 mg/kg
- BALF eosinophil number (BN rats): 1.32 ± 0.32 ×10^6/ml
